Where two headings read alike, the source gives them in different places.
How the values were obtained:
[1] = target: T1, human α1A-adrenoceptor (Homo sapiens, UniProt P35348); test: [3H]prazosin whole-cell competition binding, CHO-α1A cells
T1 construct: CHO cells stably expressing either the full‐length human α1A, α1B, or α1D‐adrenoceptor
T1 sequence (P35348 1-466): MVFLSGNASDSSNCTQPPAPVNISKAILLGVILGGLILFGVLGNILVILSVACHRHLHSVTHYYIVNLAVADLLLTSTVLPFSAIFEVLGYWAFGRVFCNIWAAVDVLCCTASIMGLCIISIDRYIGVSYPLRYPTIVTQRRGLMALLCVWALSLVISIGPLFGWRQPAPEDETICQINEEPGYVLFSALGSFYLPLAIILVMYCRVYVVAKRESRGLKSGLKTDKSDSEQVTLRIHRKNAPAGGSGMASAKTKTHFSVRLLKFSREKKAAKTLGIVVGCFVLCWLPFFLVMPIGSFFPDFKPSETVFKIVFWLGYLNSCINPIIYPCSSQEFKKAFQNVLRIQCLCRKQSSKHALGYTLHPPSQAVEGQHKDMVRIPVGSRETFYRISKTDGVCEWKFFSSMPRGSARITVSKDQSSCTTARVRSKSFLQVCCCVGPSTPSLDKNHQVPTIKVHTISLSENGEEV

[2] = target: T2, full-length human α1D-adrenoceptor (Homo sapiens, UniProt P25100); test: [3H]prazosin whole-cell competition binding, CHO-α1D cells; conditions: for Selectivity ratio α1B vs α1D: ratio of KD values, higher α1D affinity (site 1 KD)
T2 sequence (P25100 1-572): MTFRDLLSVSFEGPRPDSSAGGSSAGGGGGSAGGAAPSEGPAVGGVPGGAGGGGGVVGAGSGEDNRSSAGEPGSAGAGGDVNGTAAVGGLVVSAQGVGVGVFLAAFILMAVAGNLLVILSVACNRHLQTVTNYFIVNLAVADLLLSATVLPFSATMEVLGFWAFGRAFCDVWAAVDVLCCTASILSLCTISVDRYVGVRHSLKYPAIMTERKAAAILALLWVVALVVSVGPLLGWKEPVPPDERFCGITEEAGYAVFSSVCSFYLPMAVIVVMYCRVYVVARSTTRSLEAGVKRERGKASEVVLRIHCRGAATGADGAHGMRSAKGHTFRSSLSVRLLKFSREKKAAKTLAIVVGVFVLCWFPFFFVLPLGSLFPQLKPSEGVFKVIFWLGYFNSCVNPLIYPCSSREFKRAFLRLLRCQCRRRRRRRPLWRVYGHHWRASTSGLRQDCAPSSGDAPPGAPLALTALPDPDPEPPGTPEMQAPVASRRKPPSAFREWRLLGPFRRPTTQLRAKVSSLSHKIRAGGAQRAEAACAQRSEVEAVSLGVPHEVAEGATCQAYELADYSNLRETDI

[3] = target: T3, human α1B-adrenoceptor (Homo sapiens, UniProt P35368); test: [3H]prazosin whole-cell competition binding, CHO-α1B cells; conditions: for Selectivity ratio α1B vs α1D: ratio of KD values, higher α1B affinity, 1.0 under vs = none
T3 construct: CHO cells stably expressing either the full‐length human α1A, α1B, or α1D‐adrenoceptor
T3 sequence (P35368 1-520): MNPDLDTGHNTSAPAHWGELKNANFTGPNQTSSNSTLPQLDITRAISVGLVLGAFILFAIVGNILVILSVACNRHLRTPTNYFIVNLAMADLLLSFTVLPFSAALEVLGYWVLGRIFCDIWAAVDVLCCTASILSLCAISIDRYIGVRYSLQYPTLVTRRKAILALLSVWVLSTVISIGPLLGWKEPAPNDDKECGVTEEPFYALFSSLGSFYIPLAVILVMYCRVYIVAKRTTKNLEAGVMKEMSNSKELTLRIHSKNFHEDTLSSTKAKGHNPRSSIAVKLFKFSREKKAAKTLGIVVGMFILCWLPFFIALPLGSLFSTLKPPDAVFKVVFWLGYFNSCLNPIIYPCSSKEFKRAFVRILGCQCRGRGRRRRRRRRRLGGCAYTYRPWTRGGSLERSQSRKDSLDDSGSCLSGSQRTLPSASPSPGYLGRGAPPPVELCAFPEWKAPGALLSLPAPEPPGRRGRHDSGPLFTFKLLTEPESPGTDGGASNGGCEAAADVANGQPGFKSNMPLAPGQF

[4] = ratio of KD values, higher α1A affinity, 1.0 under vs = none
[5] = ratio of KD values, printed under α1A = higher α1A affinity, 1.0 under vs = none
[6] = single-component inhibition curve, given as log KD (negative), mean ± SE mean, read-out: Log KD α1A (converted)
[7] = Log KD α1D, single-component inhibition curve, given as log KD (negative), mean ± SE mean
[8] = single-component inhibition curve, given as log KD (negative), mean ± SE mean, read-out: Log KD α1B (converted)
[9] = ratio, 1 = no selectivity for a subtype over another

SMILES	Selectivity ratio α1A vs α1D [1, 4]	Selectivity ratio α1A vs α1B [1, 5]	Kd [1, 6]	Kd [2, 7]	Kd [3, 8]	Selectivity ratio α1B vs α1D [2]	selectivity α1B vs α1D [3, 9]	further results
CN(C)CCCN1c2ccccc2CCc2ccccc21 [Imipramine]	–	–	0.0339 µM	1.29 µM	1.74 µM	1.3 fold	1.3	Selectivity ratio α1A vs α1B [1]: 51 fold; Selectivity ratio α1A vs α1D [1]: 38 fold
Cc1ccc(OCC(O)C(C)NC(C)C)c2c1CCC2 (stereo not shown) [ICI118551]	1.9 fold	11 fold	5.89 µM	11 µM	–	5.8 fold	5.8	Kd ([3]; app: top concentration inhibited most but not all specific binding, curve extrapolated, read-out: Log KD α1B (apparent) (converted)): 63.1 µM
OCCN1CCN(CCC=C2c3ccccc3Sc3ccc(C(F)(F)F)cc32)CC1 [Flupenthixol]	25 fold	7.6 fold	0.00447 µM	0.11 µM	0.0339 µM	–	–	Selectivity ratio α1B vs α1D [3]: 3.2 fold
COc1ccccc1N1CCN(CCCNc2c(C)c(=O)n(C)c(=O)n2C)CC1 [5-methyl-urapidil]	–	–	–	–	–	–	–	Log KD α1A [1]: -8.23 ± 0.05; selectivity α1A vs 1D [1]: 417; selectivity α1A vs α1B [1]: 148; Log KD α1D [2]: -5.61 ± 0.07; Log KD α1B [3]: -6.06 ± 0.04; selectivity α1B vs α1D [3]: 2.8
CC(C)(C)NCC(O)COc1cccc2[nH]c(C#N)cc12 (stereo not shown) [Cyanopindolol]	1.5 fold	4.8 fold	2.57 µM	–	12.3 µM	3.1 fold	3.1	Kd [2]: 3.98 µM

Now from value to compound, other results behind:

Selectivity ratio α1A vs α1D [1, 4]	Selectivity ratio α1A vs α1B [1, 5]	Kd [1, 6]	Kd [2, 7]	Kd [3, 8]	Selectivity ratio α1B vs α1D [2]	selectivity α1B vs α1D [3, 9]	SMILES	further results
138 fold	41 fold	0.00372 µM	0.513 µM	0.151 µM	–	–	O=C(NC1CCN(CCc2c[nH]c3ccccc23)CC1)c1ccccc1 [Indoramin]	α1A selectivity ([1]; for α1A over the α1B or α1D-adrenoceptors): 40 fold; Selectivity ratio α1B vs α1D [3]: 3.4 fold
6.9 fold	51 fold	0.0617 µM	0.427 µM	3.16 µM	7.4 fold	7.4	COc1ccccc1N1CCN(CCCNc2cc(=O)n(C)c(=O)n2C)CC1 [Urapidil]	–
468 fold	1288 fold	0.000245 µM	0.115 µM	0.316 µM	2.8 fold	2.8	C[C@H](Cc1cc2c(c(C(N)=O)c1)N(CCCO)CC2)NCCOc1ccccc1OCC(F)(F)F [Silodosin]	Kd ([1]; subtype not given, ligands with α1A selectivity (Table 1: α1A), read-out: affinity): < 0.00025 µM

— article PMC7327383, “The affinity and selectivity of α‐adrenoceptor antagonists, antidepressants, and antipsychotics for the human α1A, α1B, and α1D‐adrenoceptors” (Pharmacology Research & Perspectives, 2020)
